Reference: patent US20260234159A1, “SMALL MOLECULE TREATMENT OF FATTY LIVER DISEASE AND HCC” (SCANDIEDGE THERAPEUTICS AB, priority 2023, published 2026)

Experiments:
PKL = test: Western blot, PKL; type: cell-based, human; details: 10 μM, 2 days
Procedure: HepG2 cells were seeded into a 6-well plate at 400,000 cells per well. After treatment with 10 μM of JNK-IN-5A and its derivatives for two days, lysates were harvested with CelLytic M (C2978, Sigma-Aldrich). 20 μg lysate was prepared with 2× Laemmli Sample Buffer (1610737, Biorad). SDS PAGE were performed using Mini-PROTEAN® TGX™ Precast Gels (Bio-Rad) and transferred using Trans-Blot® Turbo™ Transfer System (Bio-Rad). Primary antibody, PARP (95425, Cell signalling), Caspase 3 (ab32042, abcam), Bcl-2 (ab182858), STAT1 (HPA000982, Merk), PKL (06653, Sigma), PKM (4053S, Cell signalling), GAPDH (ab8245, abcam), P53 (ab32389, abcam), p21 (ab109199, abcam), p-S349 p62 (ab211324, abcam), p62 (ab109012, abcam), c-Myc (ab32072, abcam), GPX4 (ab125066, abcam), MMP9 (MA5-32705, Invitrogen), β-actin (ab8227, abcam), and α-tubulin (ab7291, abcam) were blotted overnight and Goat Anti-Rabbit HRP (ab205718) and goat anti-mouse IgG-HRP (sc2005, Santa Cruz Biotechnology, Inc.) were blotted for secondary antibody for one hour. ImageQuantTMLAS 500 (29-0050-63, GE) was used to detect protein bands.

HSD fed rats = test: In vivo efficacy study in high sucrose diet (HSD) steatosis rats; details: HSD plus 30 mg/kg seven days
Text: In vivo efficacy studies. After 1-week acclimation period, rats were randomly separated into two groups: control group (n=5) and high sucrose group (n=20). The control group was fed with a standard diet while the others consumed high sucrose diet (HSD). Sucrose was purchased from Sigma Chemical Co. (St Louis, MO, USA) and supplied at the dose of 10% in the drink water for two weeks.
After 2 weeks, five rats in the HSD group were randomly sacrificed for conformation of NAFLD model. Then, the remaining rats in the HSD group were separated into three sub-groups (n=5): HSD group, HSD plus BX-912 group and HSD plus JNK-IN-5A group. BX-912 and JNK-IN-5A were dissolved in DMSO and were orally administrated using oral gavage for one week (30 mg/kg/day). The HSD group were treated with vehicle solution only.
At the end of the experiment, rats were sacrificed after being anesthetized. Blood samples were collected from the abdominal aorta and centrifuged at 8000 rpm for 15 min at 4° C. The plasma was separated and stored at −80° C. until further analysis. Other internal organs, including the heart, adipose tissues, liver, kidney, muscle, intestine (duodenum, ileum, jejunum), pancreas, colon and stomach were immediately removed and then snap frozen in liquid nitrogen and stored at −80° C.; the liver was also fixed in 10% formaldehyde for histopathological examination.
Histopathological examination. The liver tissues were fixed in 10% buffered formaldehyde solution. After fixation, the tissues were passed through graded alcohol and xylene series and embedded in paraffin blocks. 5 micrometer thick sections were taken serially from the paraffin blocks. Histopathological changes were evaluated by performing hematoxylin eosin staining on the sections taken. Sections were evaluated according to histopathological findings as none (−), mild (+), moderate (++) and severe (+++).
Immunohistochemical examination. After deparaffinization, the slides were immersed in antigen retrieval solution (pH 6.0) and heated in microwave for 15 min to unmask the antigens. The sections were then dipped in 3% H2O2 for 10 min to block endogenous peroxidase activity. Protein block was dropped onto the sections, washed with PBS for 10 min. Primary antibodies (8-OH-dG, Cat No: sc-66036, Diluent Ratio: 1/100, Santa Cruz) were prepared and applied according to the usage conditions. Expose mouse and rabbit specific HRP/DAB detection IHC kit were used as follows: sections were incubated with goat anti-mouse antibody, then with streptavidin peroxidase, and finally with 3,3′ diamino benzidine+chromogen. Slides were counter stained with hematoxylin. Immunoreactivity in the sections were graded as none (−), mild (+), moderate (++) and severe (+++).

HepG2 cells = test: Lipid peroxidation assay; type: cell-based, human
Procedure: HepG2 cells were seeded into a 6-well plate at 400,000 cells per well. After treatment with the compounds at desired concentration and time, TMRE (ab113852, abcam), Autophagy (ab139484, abcam), ROS (ab113851, abcam), and Lipid peroxidation (ab243377, abcam) assay were performed according to manufacturer's instructions. Fluorescence images were taken using ZOE™ Fluorescent Cell Imager (Biorad) and ROI of fluorescence intensity was measured and calculated by Image J. For microplate reader florescence assay, 40,000 of HepG2 cells were seeded into a 96-well plate and triplicated. GFP (Ex480 nm, Em530 nm) and RFP (Ex549 nm, Em574 nm) were measured using a microplate reader (Hidex Sense Meta Plus).

## N#Cc1c(NC(=O)c2cccc3ccccc23)sc2c1CCCC2 [JNK-IN-5A, N-(3-cyano-4,5,6,7-tetrahydrobenzo[b]thiophen-2-yl)-1-naphthamide]
PKL
  PKL expression: notably decreased
HSD fed rats
  toxic effect on small intestine, large intestine, stomach, heart and muscle tissues: no toxic effect
HSD fed rats; HSD 3w severe
  degeneration in hepatocytes in liver tissues: mild
  degeneration in renal tubule epithelium: mild
  fattening in the parenchyma cells of pancreas tissues: mild
  steatosis in hepatocytes in liver tissues: mild
HSD fed rats; HSD 3w strong
  8-OH-dG expression in hepatocytes: significantly decreased

## N#Cc1c(NC(=O)c2cccc3ccccc23)sc2c1CCN(CC(=O)Nc1cccc(Br)c1)C2 [PKL-B171]
HepG2 cells
  GFP/RFP ratio (lipid peroxidation): statistically significant increase
